Where “and” joins values, the source holds several entries; their conditions need not be identical. Equal values may be shown once.
Experiments:
[1] = test system: yellow nutsedge; parameters: species or system Cyperus esculentus; settings: in vivo
[2] = test system: three broadleaf weeds (morning glory, mustard, velvetleaf); parameters: species or system Ipomoea purpurea, Brassica kaber, Abutilon theophrasti; settings: in vivo
[3] = test system: three grassy weeds (wild oat, watergrass, foxtail); parameters: species or system Avena fatua, Echinochloa crusgalli, Setaria viridis; settings: in vivo
[4] = test system: three grassy weeds (wild oat, watergrass, foxtail); parameters: species or system Avena fatua, Echinochloa crusgalli, Setaria viridis; settings: in vivo; remark: listed apart in the source
[5] = test system: yellow nutsedge; parameters: species or system Cyperus esculentus; settings: in vivo; remark: listed apart in the source
[6] = test system: three broadleaf weeds (morning glory, mustard, velvetleaf); parameters: species or system Ipomoea purpurea, Brassica kaber, Abutilon theophrasti; settings: in vivo; remark: listed apart in the source
[7] = test system: three broadleaf weeds: wild mustard, redroot pigweed and curly dock; experiment: Post-emergence herbicidal activity, broadleaf weeds (Table III); format: in vivo, Brassica kaber, Amaranthus retroflexus, Rumex crispus; settings: 2.24 kg/ha, 2-3 weeks after treatment
Description: (§1) The herbicidal effect was observed by comparing the extent of weed control in test flats treated with the compounds against that occurring in similar non-treated control flats. All were applied at 3.57 lb/A (4 kg/ha) to pre-emergence and post-emergence screening flats. An 80 gal/A (748.3 1/ha) spray volume was utilized. Post-emergence flats were seeded 12 days prior to treatment. Pre-emergence flats were seeded one day prior to treatment. Overhead watering of pre-emergence flats and soil surface watering of post-emergence flats, so as to avoid wetting the foliage, were carried out for the duration of the test.
(§2) Weed seeds were planted in a flat at a seed depth of 0.5 inch (1.3 cm). Soil for flats was prepared using loam soil fortified with 17-17-17 fertilizer (N-P2 O5 -K2 O on a weight basis) and Captan 80W fungicide. The test weeds were as follows:
(§3) The spray solutions were prepared by dissolving 240 mg of test compound in 20 ml of acetone containing 1% polyoxyethylene sorbitan monolaurate emulsifier, then adding 20 ml of water to the resulting solution. The spray solutions were applied using a linear spray table. Pre-emergence flats are raised to the level of the post-emergence foliage canopy by setting the flats on a wooden block.
(§4) The degree of weed control was visually assessed and recorded as percentage control compared to the growth of the same species in an untreated check flat of the same age. The rating scale ranges from 0 to 100%, where 0 equals no effect with plant growth equal to the untreated control, and 100 equals complete kill.
(§5) Compounds 68 to 145 in Table I were tested generally similarly to Compounds No. 1 to 67 with the following differences: The rate of application was 2 lb/acre (2.24 kg/ha), no 6-day evaluations were made, and the weeds were:
(§6) Three broadleaf weeds: wild mustard, redroot pigweed (Amaranthus retroflexus) and curly dock (Rumex crispus).
(§7) Ratings were taken 2-3 weeks after treatment.

[8] = test system: three broadleaf weeds: wild mustard, redroot pigweed and curly dock; experiment: Pre-emergence herbicidal activity, broadleaf weeds (Table III); format: in vivo, Brassica kaber, Amaranthus retroflexus, Rumex crispus; settings: 2.24 kg/ha, 2-3 weeks after treatment
Description: as §1, §2, §3, §4, §5, §6, §7

[9] = test system: four grassy weeds: wild oat, watergrass, green foxtail and crabgrass; experiment: Pre-emergence herbicidal activity, grassy weeds (Table III); format: in vivo; settings: 2.24 kg/ha, 2-3 weeks after treatment
Description: as §1, §2, §3, §4, §5
(§8) Four grassy weeds: wild oat, watergrass, green foxtail and crabgrass (Digitaria sanguinalis);
as §7

[10] = test system: four grassy weeds: wild oat, watergrass, green foxtail and crabgrass; experiment: Post-emergence herbicidal activity, grassy weeds (Table III); format: in vivo; settings: 2.24 kg/ha, 2-3 weeks after treatment
Description: as §1, §2, §3, §4, §5, §8, §7

Row | Structure (SMILES) | % Control, Post-emergence, NS [1] | % Control, Pre-emergence, BL avg. [2] [%] | % Control, Post-emergence, GR avg. [3] | % Control, Pre-emergence, GR avg. [4] [%] | % Control, Pre-emergence, NS [5] [%] | % Control, Post-emergence, BL avg. [6] | % Control, Post-Emergence, BL Avg. [7] [%] | % Control, Pre-Emergence, BL Avg. [8] [%] | % Control, Pre-Emergence, GR Avg. [9] [%] | % Control, Post-Emergence, GR Avg. [10] [%]
1 | CCCSP(=O)(N(CCC)CCC)N(C)c1ccc(F)c(Cl)c1 (stereo not drawn) [Compound 31] | 0% | 0 | 10% and 5% | 0 | 0 |  |  |  |  | 
2 | CCCSP(=O)(N(CCC)CCC)N(C)c1ccc(OC)c(OC)c1 (stereo not drawn) [Compound 42] | 0% | 0 | 20% and 23% | 0 | 0 | 50% and 83% |  |  |  | 
3 | CCCSP(=O)(N(CCC)CCC)N(C)c1ccc(OC)cc1 (stereo not drawn) [Compound 36] | 0% | 0 | 10% | 0 | 0 | 100% |  |  |  | 
4 | CCCSP(=O)(N(CCC)CCC)N(C)c1ccc(F)c(F)c1 (stereo not drawn) [Compound 30] | 0% | 0 | 5% and 0% | 0 | 0 | 80% and 97% |  |  |  | 
5 | CCCSP(=O)(N(CCC)CCC)N(C)c1ccc(Cl)cc1Cl (stereo not drawn) [Compound 22] | 10% and 0% | 0 | 50% and 53% | 0 | 0 | 60% |  |  |  | 
6 | CCCSP(=O)(N(CCC)CCC)N(C)c1cc(F)c(F)cc1F (stereo not drawn) [Compound 48] | 0% | 0 | 80% and 40% | 0 | 0 | 90% and 80% |  |  |  | 
7 | CCCSP(=O)(N(CCC)CCC)N(C)c1ccc(Br)cc1Br (stereo not drawn) [Compound 37] | 0% | 0 | 20% and 10% | 0 | 0 | 80% and 83% |  |  |  | 
8 | CCCSP(=O)(N(CCC)CCC)N(C)c1ccccc1F (stereo not drawn) [Compound 33] | 0% | 0 | 5% and 0% | 0 | 0 |  |  |  |  | 
9 | CCCSP(=O)(N(CCC)CCC)N(C)c1ccccc1 (stereo not drawn) [Compound 27] | 0% and 5% | 0 | 20% and 40% | 0 | 0 |  |  |  |  | 
10 | CCCCN(CCCC)P(=O)(SCCC)N(C(C)C)C(C)C (stereo not drawn) [Compound 28] | 0% | 0 | 10% and 7% | 0 | 0 |  |  |  |  | 
11 | CCCN(CCC)P(=O)(SC(C)CC)N1CC(CC)CCC1C (stereo not drawn) [Compound 98] |  |  |  |  |  |  | 90 | 33 | 0 | 61
12 | CCCSP(=O)(N(CC)CC)N(C(C)C)C(C)C (stereo not drawn) [Compound 29] | 0% | 0 | 10% and 7% | 0 | 0 |  |  |  |  | 
13 | CCCN(CCC)P(=O)(SC(C)C)N1CC(CC)CCC1C (stereo not drawn) [Compound 97] |  |  |  |  |  |  | 86 | 20 | 0 | 67
14 | CCCCCSP(=O)(N(CC)CCCC)N(CCC)CCC (stereo not drawn) [Compound 133] |  |  |  |  |  |  | 97 | 10 | 0 | 59
15 | CCCCCSP(=O)(N(CCC)CCC)N(CCCC)CCCC (stereo not drawn) [Compound 130] |  |  |  |  |  |  | 97 | 16 | 0 | 59
16 | CCCSP(=O)(N(CC)CC)N(CCC)CCC (stereo not drawn) [Compound 145] |  |  |  |  |  |  | 87 | 30 | 0 | 60

Row | Structure (SMILES) | % Control, Post-emergence, NS [1] | % Control, Pre-emergence, BL avg. [2] [%] | % Control, Post-emergence, GR avg. [3] | % Control, Pre-emergence, GR avg. [4] [%] | % Control, Pre-emergence, NS [5] [%] | % Control, Post-emergence, BL avg. [6] | % Control, Post-Emergence, BL Avg. [7] [%] | % Control, Pre-Emergence, BL Avg. [8] [%] | % Control, Pre-Emergence, GR Avg. [9] [%] | % Control, Post-Emergence, GR Avg. [10] [%]
17 | CCCCCSP(=O)(N(CCCC)CCCC)N(CCCC)CCCC [Compound 132] |  |  |  |  |  |  | 67 | 20 | 8 | 40
18 | CCCCN(CC)P(=O)(SC(C)CC)N(CCC)CCC (stereo not drawn) [Compound 114] |  |  |  |  |  |  | 93 | 0 | 0 | 56
19 | CCCSP(=O)(N(CCC)CCC)N(CCC)CCC [Compound 71] |  |  |  |  |  |  | 99 | 57 | 27 | 64
20 | C=CCSP(=O)(N(CCC)CCC)N(CCC)CCC [Compound 99] |  |  |  |  |  |  | 99 | 37 | 22 | 58
21 | CCCSP(=O)(N(CCC)CCC)N(C)c1ccc(F)cc1 (stereo not drawn) [Compound 32] | 0% | 0 | 10% and 3% | 0 | 0 |  |  |  |  | 
22 | CCCN(CCC)P(=O)(SC(C)C)N(CCC)CCC [Compound 79] |  |  |  |  |  |  | 99 | 50 | 35 | 85
23 | CCCCN(CCCC)P(=O)(SC1CCCCC1)N(C)C (stereo not drawn) [Compound 117] |  |  |  |  |  |  | 77 | 0 | 0 | 50
24 | CCCCN(CCCC)P(=O)(SCC)N(CCC)CCC (stereo not drawn) [Compound 123] |  |  |  |  |  |  | 89 | 0 | 0 | 65
25 | CCCSP(=O)(N(CCC)CCC)N(C)c1cc(OC)cc(OC)c1 (stereo not drawn) [Compound 43] | 0% | 0 | 10% | 0 | 0 |  |  |  |  | 
26 | CCCN(CCC)P(=O)(SCc1ccccc1)N(CCC)CCC [Compound 95] |  |  |  |  |  |  | 80 | 13 | 5 | 55
27 | CCCN(CCC)P(=O)(SC1CCCCC1)N(CCC)CCC [Compound 118] |  |  |  |  |  |  | 63 | 0 | 0 | 30
28 | CCCCN(CCCC)P(=O)(SCCC)N(CCC)CCC (stereo not drawn) [Compound 124] |  |  |  |  |  |  | 79 | 0 | 0 | 67
29 | CCCN(CCC)P(=O)(SC(C)CC)N(CCC)CCC (stereo not drawn) [Compound 80] |  |  |  |  |  |  | 100 | 53 | 25 | 80
30 | C=CCSP(=O)(N(CC)CCCC)N(CCC)CCC (stereo not drawn) [Compound 115] |  |  |  |  |  |  | 86 | 0 | 0 | 70
31 | CCCCSP(=O)(N(CCCC)CCCC)N(CCCC)CCCC [Compound 83] |  |  |  |  |  |  | 99 | 7 | 5 | 82
32 | CCCN(CCC)P(=O)(SCC)N(CCC)CCC [Compound 70] |  |  |  |  |  |  | 99 | 10 | 5 | 82

Reference: US5189169A (priority 1991, dated 1993)
